Experimental data: paper PMC6427567, “Discovery of novel coumarin derivatives as potent and orally bioavailable BRD4 inhibitors based on scaffold hopping” (Journal of Enzyme Inhibition and Medicinal Chemistry, 2019)

What was measured:
[1] = design: method as in PMID 23095041; details: cited from earlier work
[2] = biological target: T1, BRD4-full length: recombinant human bromodomain containing protein 4 (bromodomain 1 and 2; aa 2–1362) (Homo sapiens, UniProt O60885); assay: BRD4 binding assay (AlphaScreen); details: for BRD4 binding activity in words / IC50: AlphaScreen assay; for LE (Ligand Efficiency): LE = 1.4 (pIC50/heavy atoms)
T1 construct: (bromodomain 1 and 2; aa 2–1362; Genbank Accesstion # NM_058243); host or cells: Sf9 insect cells
Method: The binding affinity was evaluated by a using AlphaScreen technology […] assay. The biotinylated peptide binding to the reader domain of His-tagged protein is monitored by the singlet oxygen transfer from the Streptavidin-coated donor beads to the AlphaScreen Ni-chelate acceptor beads. Reagent:Reaction buffer:50 mM Hepes, pH7.5, 100 mM NaCl, 0.05% CHAPS, 0.1% BSA, and 1% DMSO (the final DMSO concentration may different depending on compound stock and test concentrations). […] MW = 156.5 kDa. […] Reaction procedure: (1) Deliver 2.5× BRD in wells of reaction plate except No BRD control wells. Add buffer instead. (2) Deliver compounds in 100% DMSO into the BRD mixture by Acoustic technology (Echo550; nanoliter range). Spin down and pre-incubation for 30 min. (3) Deliver 5 × Ligand. Spin and shake. (4) Incubate for 30 min at room temperature with gentle shaking. (5) Deliver 5× donor beads. Spin and shake. (6) Deliver 5 × acceptor beads. Spin and shake. Then gentle shaking in the dark for 60 min. (7) Alpha measurement (Ex/Em = 680/520–620 nm) in Enspire.

Row | IC50 [2] [µM] | LE (Ligand Efficiency) [2] | SMILES | further results
1 | – | – | COc1ccccc1S(=O)(=O)Nc1ccc2c(c1)CN(C)C(=O)N2 [PFI-1] | oral bioavailability (F) [1]: 32%
2 | 9.26 | 0.35 | O=c1ccc2cc(NS(=O)(=O)c3cccs3)ccc2o1 [Compound 14, N-(2-oxo-2H-chromen-6-yl)thiophene-2-sulphonamide] | BRD4 binding activity in words [2]: low binding activity
3 | 5.09 | 0.30 | CC(C)(C)c1ccc(S(=O)(=O)Nc2ccc3oc(=O)ccc3c2)cc1 [Compound 8, 4-(tert-butyl)-N-(2-oxo-2H-chromen-6-yl)benzene sulphonamide] | –
4 | 6.59 | 0.35 | O=c1ccc2cc(NS(=O)(=O)c3ccccc3)ccc2o1 [Compound 1, N-(2-oxo-2H-chromen-6-yl)benzenesulphonamide] | –
5 | 12.2 | 0.28 | O=c1ccc2cc(NS(=O)(=O)c3ccc4ccccc4c3)ccc2o1 [Compound 15, N-(2-oxo-2H-chromen-6-yl)naphthalene-2-sulphonamide] | BRD4 binding activity in words [2]: reduction of affinity
6 | 2.21 | 0.36 | O=c1ccc2cc(NS(=O)(=O)c3ccccc3Cl)ccc2o1 [Compound 10, 2-chloro-N-(2-oxo-2H-chromen-6-yl)benzenesulphonamide] | –
7 | 5.03 | 0.32 | N#Cc1cccc(S(=O)(=O)Nc2ccc3oc(=O)ccc3c2)c1 [Compound 9, 3-cyano-N-(2-oxo-2H-chromen-6-yl)benzene sulphonamide] | –
8 | 19 | 0.31 | O=c1ccc2cc(NS(=O)(=O)C3CCCCC3)ccc2o1 [Compound 2, N-(2-oxo-2H-chromen-6-yl)cyclohexanesulphonamide] | –
9 | 1.77 | 0.35 | O=c1ccc2cc(NS(=O)(=O)c3ccc(Cl)cc3Cl)ccc2o1 [Compound 12, 2,4-dichloro-N-(2-oxo-2H-chromen-6-yl)benzenesulphonamide] | –
10 | 38.5 | 0.34 | CCCS(=O)(=O)Nc1ccc2oc(=O)ccc2c1 [Compound 4, N-(2-oxo-2H-chromen-6-yl)propane-1-sulphonamide] | –
11 | 30 | 0.33 | CCCCS(=O)(=O)Nc1ccc2oc(=O)ccc2c1 [Compound 5, N-(2-oxo-2H-chromen-6-yl)butane-1-sulphonamide] | –
12 | 32.6 | – | COc1ccc(NS(=O)(=O)c2ccc3oc(=O)ccc3c2)cc1 [Compound 17, N-(4-methoxyphenyl)-2-oxo-2H-chromene-6-sulphonamide] | fold decrease in potency compared with 7 (BRD4) ([2]; compared with compound 7): ~5 fold
13 | 0.98 | 0.37 | COc1ccccc1S(=O)(=O)Nc1ccc2oc(=O)ccc2c1 [Compound 11, 2-methoxy-N-(2-oxo-2H-chromen-6-yl)benzenesulphonamide] | lipophilic efficiency (LipE) ([2]; LipE = −lg (IC50) − logP): 3.9; fold more potent than 1 (BRD4 IC50) ([2]; compared with compound 1): approximately 7 fold
14 | 18.4 | 0.28 | O=c1ccc2cc(NS(=O)(=O)c3ccc4c(c3)CCO4)ccc2o1 [Compound 16, N-(2-oxo-2H-chromen-6-yl)-2,3-dihydrobenzofuran-5-sulphonamide] | BRD4 binding activity in words [2]: reduction of affinity
15 | 17.9 | 0.33 | O=c1ccc2cc(NS(=O)(=O)C3CCCC3)ccc2o1 [Compound 3, N-(2-oxo-2H-chromen-6-yl)cyclopentanesulphonamide] | –

Row | SMILES | IC50 [2] [µM] | LE (Ligand Efficiency) [2] | further results
16 | O=c1ccc2cc(NS(=O)(=O)c3ccc(Cl)cc3)ccc2o1 [Compound 6, 4-chloro-N-(2-oxo-2H-chromen-6-yl)benzenesulphonamide] | 2.97 | 0.34 | –
17 | COc1ccc(S(=O)(=O)Nc2ccc3oc(=O)ccc3c2)cc1 [Compound 7, 4-methoxy-N-(2-oxo-2H-chromen-6-yl)benzene sulphonamide] | 7.31 | 0.33 | –
